Values quoted from earlier work in patent US20080021016A1, “Combined Pharmaceutical Composition for the Inhibition of the Decline of Cognitive Functions” (priority 2004, published 2008).

Legend:
[1] = 1 and 10 mg/kg after oral administration
[2] = target: T1, central 5-HT2C receptors (Homo sapiens, UniProt P28335)
T1 sequence (P28335 33-458): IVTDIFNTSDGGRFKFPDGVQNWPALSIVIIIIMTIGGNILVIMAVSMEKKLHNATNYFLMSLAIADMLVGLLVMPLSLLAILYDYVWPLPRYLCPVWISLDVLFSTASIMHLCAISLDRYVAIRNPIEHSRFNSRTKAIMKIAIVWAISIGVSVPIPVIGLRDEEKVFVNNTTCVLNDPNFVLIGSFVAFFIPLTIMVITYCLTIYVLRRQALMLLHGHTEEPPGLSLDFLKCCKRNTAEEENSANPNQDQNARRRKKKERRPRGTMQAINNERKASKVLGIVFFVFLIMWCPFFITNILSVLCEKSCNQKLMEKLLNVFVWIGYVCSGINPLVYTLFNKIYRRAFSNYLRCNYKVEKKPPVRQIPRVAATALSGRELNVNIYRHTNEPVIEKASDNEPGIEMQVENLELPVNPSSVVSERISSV

[3] = single 0.7 mg/kg oral treatment
[4] = 10 and 30 mg/kg after oral treatment
[5] = single oral dose of 3 mg/kg sc.
[6] = target: central 5-HT2A receptors (Homo sapiens, UniProt P28223)
Chain of central 5-HT2A receptors (P28223 whole entry): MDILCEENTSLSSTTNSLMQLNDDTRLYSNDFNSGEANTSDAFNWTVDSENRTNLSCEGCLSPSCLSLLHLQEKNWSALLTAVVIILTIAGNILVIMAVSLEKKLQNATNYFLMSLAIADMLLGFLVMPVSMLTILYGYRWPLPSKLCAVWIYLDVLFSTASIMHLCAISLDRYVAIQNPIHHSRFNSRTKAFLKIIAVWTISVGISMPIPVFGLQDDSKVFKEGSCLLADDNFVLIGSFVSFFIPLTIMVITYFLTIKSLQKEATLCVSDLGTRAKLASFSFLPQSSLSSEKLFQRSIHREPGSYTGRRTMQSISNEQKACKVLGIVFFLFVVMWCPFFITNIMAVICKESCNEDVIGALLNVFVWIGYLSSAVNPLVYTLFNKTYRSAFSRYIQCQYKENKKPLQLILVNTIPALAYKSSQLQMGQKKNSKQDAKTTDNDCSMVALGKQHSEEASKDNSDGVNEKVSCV

Substance: (1R,2S,4R)-(-)-2-[N,N-(dimethylaminoethoxy)]-2-phenyl-1,7,7-trimethylbicyclo[2.2.1]heptane [deramciclane]
- activity in the Vogel punished drinking test [1]: active
- binding to central 5-HT2C receptors [2]: significantly bound
- time spent with social interactions [3]: increased the time spent with social interactions
- activity in the marble burying model [4]: active
- activity in the light-dark model [5]: active
- binding to central 5-HT2A receptors [6]: significantly bound
